One sequence from patent US10046060B2, “Co-administration of an agent linked to an internalization peptide with an anti-inflammatory” (NoNO Inc., priority 2007, dated 2018) can be followed below.

A word on the MTD: it is the highest dose tested that stayed within the study's limit of toxicity. Lower therefore signals a narrow tolerated range.

Data set [1] has as its system Beagle dogs. The experiment in a line: GLP cardiovascular telemetry study at 10 mg/kg (CRM Study No. 691429). It counts as in vivo, dog. On the procedure: To obtain detailed cardiovascular information at the highest dose level tested in the 14-day dog repeated-dose toxicity study (i.e., 10 mg/kg), an additional GLP cardiovascular telemetry study in unrestrained, conscious, Beagle dogs was performed (CRM Study No. 691429). Six animals (3 males, 3 females) received vehicle in the morning and 10 mg/kg Tat-NR2B9c in the afternoon of the same day (at least 4 hours between doses). […] The female animals used in this additional cardiovascular study were obtained from the Charles River colony and were non-nave animals that had been previously used in the first cardiovascular study for Tat-NR2B9c (CRM Study No. 691106).

The nature of data set [2]: Maximum Tolerated Dose in preclinical animal trials, rats. The conditions noted are these: rat, in vivo.
In data set [3] the test system is Beagle dogs. The experiment in a line: Non-GLP dose range study, single slow intravenous injection. As to conditions: for Severity of angio-neurotic oedema and urticaria: 12.5 mg/kg. It counts as in vivo, dog. As to the method: A non-GLP study was conducted to examine a dose range for Tat-NR2B9c, administered to Beagle dogs by a single, slow intravenous injection. Two animals (one male and one female Beagle dog) were dosed intravenously with Tat-NR2B9c on seven occasions. There was a 3-4 day wash-out period between the doses. The first dose was given at 2.5 mg/kg. […] There was no reaction in the female dog. […] The third dose was given at 12.5 mg/kg. […] The reaction in the male dog was assessed to be moderate, and in the female animal, the reaction was mild. The next dose was set at 20.0 mg/kg. […] The animal was treated with i.v. administration of benadryl and dexamethasone. BP at 5 minutes post-dosing was recorded as 37/13 mm Hg (nomial BP in a dog is ˜160/90). A decision was made not to dose the female animal.
The next doses were given in order to better understand the type of reactions seen in preceding doses. The fifth and sixth doses were set at 2.5 and 5.0 mg/kg.

Ends that are not written are not given here.

With YGRKKRRQRRRKLSSIESDV [Tat-NR2B9c], in the data set with Beagle dogs [1], the “Time post-dose over which increases in heart rate were observed” value is “up to 15 minutes”. The “Decreases in blood pressure values” in the data set on Beagle dogs [1] (individual animals at 5 to 10 minutes post-dose) is given as “up to 62%”. The “Time of maximum effect on heart rate” value in the data set on Beagle dogs [1] (males and females) was 10 min. In data set [2], this sequence registered a maximal tolerated dose (MTD) of 100 mg/kg. Further, the Reaction entry was “no reaction” with Beagle dogs [3] (5.0 mg/kg, female dog); “moderate reaction” with Beagle dogs [3] (5.0 mg/kg, male dog); “no reaction” with Beagle dogs [3] (7.5 mg/kg, female dog); “angio-neurotic edema of the soft tissue of the head and urticaria type of reaction” with Beagle dogs [3] (7.5 mg/kg, male dog); “went into shock” with Beagle dogs [3] (20.0 mg/kg, male dog). Also, the “Vital signs (heart rate, blood pressure, respiratory rate and body temperature)” value with Beagle dogs [3] (7.5 mg/kg, both animals) is “stayed within the normal physiological ranges”. The entries for the “Severity of angio-neurotic oedema and urticaria” value in the data set with Beagle dogs [3] (female dog) and with Beagle dogs [3] (male dog) were “mild” and “moderate”, respectively. Further, the “Blood pressure at 5 minutes post-dosing” value in the data set on Beagle dogs [3] (20.0 mg/kg, male dog, treated with benadryl and dexamethasone) was 37/13. In addition, the Adverse reactions entry in the data set on Beagle dogs [3] (fifth dose 2.5 mg/kg) was “reddening of ear and face of the male dog”. Besides, the Signs of toxicity result in the data set with Beagle dogs [3] (first dose 2.5 mg/kg, male and female dog) is listed as “did not show any signs of toxicity”. Further, the “Conclusion of dose range study” value in the data set with Beagle dogs [3] (high doses) was “capable of inducing profound transient hypotension and urticaria-like skin reactions”.
